The values below are quoted from earlier work in PubChem BioAssay AID1259409 (Chemical Carcinogenesis Research Information System (CCRIS), 2018).

For this series, the system named is rodent chemically induced tumor inhibition, incidence and multiplicity. Nature of the series: CCRIS tumor inhibitor studies.

For the molecule `CC(=C/C=C/C(C)=C/C=C/C=C(C)/C=C/C=C(\C)C=C=C1C(C)(C)C[C@H](O)C[C@@]1(C)O)/C=C/[C@@]12O[C@]1(C)C[C@@H](O)CC2(C)C`, the “tumour outcome (control, treated, inhibition, significance)” value reads like this: (Carcinogen: 7,12-DIMETHYLBENZ[A]ANTHRACENE, 57-97-6, Dose [Inhibitor]: 0, 0.2 UG IN 0.2 ML ACETONE APPLIED TO BUCCAL POUCH 2/WK FOR 2 WK 1 HR PRIOR TO EACH PROMOTER DOSE (STUDY DURATION: 34 W, Route [Inhibitor]: MUCOUS MEMBRANE, Species: HAMSTER, Strain/Sex: SYRIAN/MALE,FEMALE, Target Tissue: Type of Lesion: BUCCAL POUCH: TUMOR, Dose [Carcinogen]: 200 NMOL IN 0.2 ML ACETONE 3/WK FOR 2 WK, Promoter: 12-O-TETRADECANOYLPHORBOL-13-ACETATE, 16561-29-8) 3/6 (50%), 0/6 (0%), 100%, not calculated; (Carcinogen: 7,12-DIMETHYLBENZ[A]ANTHRACENE, 57-97-6, Dose [Inhibitor]: 0, 0.2 UG IN 0.2 ML ACETONE APPLIED TO BUCCAL POUCH 3/WK FOR 2 WK 1 HR PRIOR TO EACH CARCINOGEN DOSE (STUDY DURATION: 34, Route [Inhibitor]: MUCOUS MEMBRANE, Species: HAMSTER, Strain/Sex: SYRIAN/MALE,FEMALE, Target Tissue: Type of Lesion: BUCCAL POUCH: TUMOR, Dose [Carcinogen]: 200 NMOL IN 0.2 ML ACETONE 3/WK FOR 2 WK, Promoter: 12-O-TETRADECANOYLPHORBOL-13-ACETATE, 16561-29-8) 3/6 (50%), 0/6 (0%), 100%, not calculated.
With `C/C=C/S/C=C/C`, the “tumour outcome (control, treated, inhibition, significance)” value is reported as 100%, 86%, 14%, p<0.005 (Carcinogen: 7,12-DIMETHYLBENZ[A]ANTHRACENE, 57-97-6, Dose [Inhibitor]: 0, 1 MG IN 0.2 ML ACETONE APPLIED 30 MIN AFTER EACH MEZEREIN DOSE (STUDY DURATION: 20 WK), Route [Inhibitor]: DERMAL, Species: MOUSE, Strain/Sex: SENCAR/FEMALE, Target Tissue: Type of Lesion: SKIN: PAPILLOMA, Dose [Carcinogen]: 0.1 UMOL IN 0.2 ML ACETONE ONCE, Promoter: TPA, 16561-29-8, MEZEREIN, 37807-41-5, Promoter: TPA, 16561-29-8, MEZEREIN, 37807-41-5) and 100%, 91%, 9%, p<0.005 (Carcinogen: 7,12-DIMETHYLBENZ[A]ANTHRACENE, 57-97-6, Dose [Inhibitor]: 0, 1 MG IN 0.2 ML ACETONE APPLIED 30 MIN AFTER EACH TPA DOSE (STUDY DURATION: 20 WK), Route [Inhibitor]: DERMAL, Species: MOUSE, Strain/Sex: SENCAR/FEMALE, Target Tissue: Type of Lesion: SKIN: PAPILLOMA, Dose [Carcinogen]: 0.1 UMOL IN 0.2 ML ACETONE ONCE, Promoter: TPA, 16561-29-8, MEZEREIN, 37807-41-5, Promoter: TPA, 16561-29-8, MEZEREIN, 37807-41-5).
For the molecule `O=C1C[C@@H](c2ccc(O)cc2)Oc2cc(O)cc(O)c21`, the “tumour outcome (control, treated, inhibition, significance)” value (Carcinogen: 7,12-DIMETHYLBENZ[A]ANTHRACENE, 57-97-6, Dose [Inhibitor]: 100 UG IN 0.2 ML ACETONE ONCE 5 MIN BEFORE CARCINOGEN TREATMENT (STUDY DURATION: 31 WK), Route [Inhibitor]: DERMAL, Species: MOUSE, Strain/Sex: CD-1/FEMALE, Target Tissue: Type of Lesion: SKIN: PAPILLOMA, Dose [Carcinogen]: 10 NMOL IN 0.2 ML ACETONE ONCE, Promoter: 12-O-TETRADECANOYLPHORBOL-13-ACETATE, 16561-29-8) was 87%, 94%, -8%, not calculated. In addition, the outcome (Carcinogen: N-Methyl-N'-nitro-N-nitrosoguanidine (70-25-7) and saturated sodium chloride (7647-14-5), Dose [Inhibitor]: 200 mg/kg bw dissolved in corn oil for 20 wk from first dose of MNNG + NaCl and from the 6th wk of MNNG + NaCl induction, Route [Inhibitor]: Gavage, Species: Rat, Strain/Sex: Wistar/Male, Target Tissue: Type of Lesion: Stomach, Dose [Carcinogen]: 200 mg/kg at days 0 and 14 (MNNG) and 1 ml/rat 3 days for 4 wk (NaCl); study duration 20 wk), Promoter: None) is listed as 0 (0) in negative controls; 6 (100) in positive controls; 0 (0) simultaneous tre.
On to `Oc1cc(O)cc(O)c1`, for which the “tumour outcome (control, treated, inhibition, significance)” value (Carcinogen: BENZO[A]PYRENE, 50-32-8, Dose [Inhibitor]: 0.03 MMOL/G OF DIET DAILY STARTING 7 D BEFORE AND CONTINUING THROUGH 3 D AFTER CARCINOGEN TREATMENT FOLLOWED BY OBSERVAT, Route [Inhibitor]: ORAL, Species: MOUSE, Strain/Sex: ICR/FEMALE, Target Tissue: Type of Lesion: FORESTOMACH: NEOPLASM, Dose [Carcinogen]: 1 MG IN 0.2 ML CORN OIL 2/WK FOR 4 WK, Promoter: NONE USED) is 100%, 83%, 17%, not significant.
